Where “and” joins values, the source holds several entries; their conditions need not be identical. Equal entries are not always repeated.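 Cells were grown in 96-well plates and exposed to each compound for 48 hours at five concentrations; endpoints were interpolated linearly between bracketing concentrations, or set to the highest concentration if not reached. The concentration for 50% growth inhibition is given as GI50. The concentration for full growth arrest is given as TGI.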 Where a SMILES comes first, the peptide text is derived from it. [ ]: non-standard residue; d: D form. The star is where a group is joined. ξ: configuration not given here. X6 = FC(F)(F)c1cc(NC(=S)*)cc(C(F)(F)F)c1; ξF = NC(Cc1ccccc1)C(=O)O
Key:
Test in all cases: DTP human tumour cell line panel, 48 h
[1] = test system: SK-MEL-28 melanoma
[2] = test system: HOP-92 NSCLC
[3] = test system: CCRF-CEM leukemia
[4] = test system: NCI-H460 lung
[5] = test system: SNB-19 CNS
[6] = test system: SK-MEL-5 melanoma
[7] = test system: RXF 393 renal
[8] = test system: SF-295 CNS
[9] = test system: IGROV1 ovarian
[10] = test system: MOLT-4 leukemia

Compound | GI50 [1] [µM] | TGI [1] | GI50 [2] [µM] | TGI [2] [µM] | GI50 [3] [µM] | TGI [3] [µM] | GI50 [4] [µM] | TGI [4] | GI50 [5] [µM] | TGI [5] [µM] | GI50 [6] [µM] | TGI [6] [µM] | GI50 [7] [µM] | TGI [7] | GI50 [8] [µM] | TGI [8] [µM] | GI50 [9] [µM] | TGI [9] [µM] | GI50 [10] [µM] | TGI [10] [µM]
CO[C@H](C(=O)[C@@H](O)[C@@H](C)O)[C@@H]1Cc2cc3cc(O[C@H]4C[C@@H](O[C@H]5C[C@@H](O)[C@H](O)C(C)O5)[C@H](O)C(C)O4)c(C)c(O)c3c(O)c2C(=O)[C@H]1O[C@H]1C[C@@H](O[C@H]2C[C@@H](O[C@H]3C[C@](C)(O)C(=O)C(C)O3)[C@@H](O)C(C)O2)[C@H](O)C(C)O1 (some centres not stated) | 0.053 | 0.203 µM | 0.0852 | 0.801 | 0.211 | > 33.2 | 0.0323 | > 33.2 µM | 0.0715 | > 33.2 | 0.0385 | 0.136 | 0.0515 | 0.119 µM | 0.0828 | 6.12 | 0.132 | > 33.2 | 0.193 | > 19.1
O=CC[C@H]1C(=O)C[C@@H]2CCC[C@@H]21 |  | > 100 µM |  | > 100 |  | > 100 |  | > 100 µM |  | > 100 |  | > 100 |  | > 100 µM |  | > 100 |  | > 100 |  | > 100
CC[C@@]1(O)C[C@H](OC2CC(N(C)C)C(O)C(C)O2)c2c(O)c3c(c(O)c2[C@H]1OC1CC(N(C)C)C(O)C(C)O1)C(=O)c1cccc(O)c1C3=O (some centres not stated) | < 0.01 | 0.135 µM and 0.0405 µM | < 0.01 |  | < 0.01 | 0.204 | < 0.01 | 0.304 µM and 0.662 µM | < 0.01 | 11.1 | < 0.01 |  | < 0.01 | 0.0643 µM and < 0.01 µM | < 0.01 |  | < 0.01 | 2.94 | < 0.01 | 0.0573
Clc1ccc2c(NCCCCNc3nc(N4CCCCC4)nc4ccccc34)ccnc2c1 | 1.89 | 3.82 µM | 1.56 | 3.39 | 1.66 | 5.23 | 2.56 | 9.03 µM | 3.09 | 14.2 | 1.77 | 3.18 | 1.66 | 3.37 µM | 1.22 | 2.6 | 1.8 | 6.59 | 1.98 | 5.62
O=C1/C(=C/c2cccc([N+](=O)[O-])c2)COc2ccc(O)cc21 | 2.02 | 4.24 µM | 2.51 | 7.89 | 0.408 | 1.85 | 2.69 | 6.65 µM | 1.96 | 3.97 | 1.8 | 3.37 | 1.73 | 3.28 µM | 6.94 | 19.8 | 1.73 | 3.34 | 2.05 | 5.83
CC1(c2ccc(F)cc2)C(C#N)C(=O)NC(=O)C1C#N (configuration not stated) |  | > 100 µM |  | > 100 |  | > 100 |  | > 100 µM |  | > 100 |  | > 100 |  | > 100 µM |  | > 100 |  | > 100 |  | > 100
CCCCCN(CCCCC)CC(O)c1cc(C)c2ccc3cc(C(C)C)ccc3c2c1 (configuration not stated) | 1.76 | 3.27 µM | 1.4 | 2.85 | 2.19 | 5.53 | 1.97 | 4.05 µM | 1.88 | 3.73 | 1.83 | 3.62 | 1.57 | 3.1 µM | 1.87 | 3.46 | 1.79 | 3.47 | 2.21 | 4.72
c1ccc2cc(-c3cc(-c4cc(-c5ccc6ccccc6c5)on4)no3)ccc2c1 |  | > 100 µM |  | > 100 |  | > 100 |  | > 100 µM |  | > 100 |  | > 100 |  | > 100 µM |  | > 100 |  | > 100 |  | > 100
CCOC(=O)C1=C(C)NC(=S)NC1c1ccccc1 (configuration not stated) |  | > 100 µM |  | > 100 |  | > 76.9 |  | > 100 µM |  | > 22.5 |  | > 100 |  | > 100 µM |  | > 100 |  | > 100 |  | > 100
NC(=O)c1cccc2cn(-c3ccc([C@@H]4CCCNC4)cc3)nc12 | 16.3 | 30.7 µM | 21.5 | 89.9 | 5.54 | 97.7 | 4 | 18.7 µM | 17.1 | > 92.7 | 13.8 | 27 | 13.5 | 27.1 µM | 4.65 | 18.1 | 15.3 | 52.3 | 6.99 | 30.1
COC(=O)[C@@H](NC(=O)CNC(=O)[C@H]1CCCN1C(=O)C(Cc1ccccc1)NC(=S)Nc1cc(C(F)(F)F)cc(C(F)(F)F)c1)C(C)C (some centres not stated) (X6-[ξF][dP]GV-OMe) | 1.84 | 3.38 µM | 1.95 | 6.37 | 3.17 | 35.1 | 3.39 | 12 µM | 2.56 | 9.49 | 1.45 | 2.79 | 1.95 | 3.5 µM | 2.33 | 6.12 | 3.31 | 10.3 | 2.28 | 6.07

From PubChem BioAssay (NCI)
